Experimental findings from patent EP0031801A2, “6-Substituted 4-(2',3'-dichlorophenyl)-2-methyl-1,4-dihydropyridine-3,5-dicarboxylic acid diesters having hypotensive properties as well as process for their preparation and pharmaceutical preparations containing same” (priority 1979, dated 1981) are described below.

Assay [1] relates to spontaneously hypertensive rats (SHR) of the Okamoto strain. Kind of assay: Antihypertensive effect in conscious, unrestrained spontaneously hypertensive rats, oral dosing. It is filed as in vivo. The settings on record: Rattus norvegicus; dose giving 20 per cent reduction of mean arterial BP, by interpolation; oral intubation, cumulated doses at 2 hour intervals, suspended in methocel solution. As for the experimental part: The antihypertensive effect of the compounds was tested in conscious, unrestrained spontaneously hypertensive rats (SHR) of the Okamoto strain. The animals had been prepared by prior implantation of indwelling catheters in the abdominal aorta via the femoral artery. Mean arterial blood pressure (MABP) and heart rate were continuously monitored. After a 2 hour control period the compound under study was administered by oral intubation at 2 hour intervals, suspended in methocel solution (5 ml/kg bodyweight). The cumulated doses were […] bodyweight. The antihypertensive response, i.e. the BP reduction to each dose, was expressed as a percentage of the initial control BP level and plotted against the dose on a logarithmic scale. The dose which would give 20 per cent BP reduction was then determined by interpolation.

Assay [2] concerns isolated portal vein preparation / paced isolated papillary heart muscle preparation. Kind of assay: Specificity towards smooth muscle relaxation: isolated portal vein versus paced papillary heart muscle in an organ bath. Also on record: species or system Wistar rats. Conditions: "separation" value: averaged difference of -log ED50 portal vein (vasodilatation) and -log ED50 papillary muscle (myocardial depression), transformed into numeric format. As for the experimental part: The specificity towards smooth muscle relaxation was examined as follows: The isolated portal vein preparation of Wistar rats was mounted in an organ bath together with a paced isolated papillary heart muscle preparation of the same animal. The integrated contractile activity of the portal vein smooth muscle and the peak force amplitude of the papillary, myocardial, preparation were recorded. The respective activities during a 30 min control period were set as 100 per cent and the ensuing activities under the influence of an agent under study were expressed as a percentage thereof. The agent was administered at 10 min intervals and the potency for vasodilatation(-log ED50 of-portal vein) and that of myocardial depression (-log ED50 of papillary muscle) were determined by interpolation from the concentration-effect relationships determined in each experiment. A "separation" value was determined for each compound by averaging the differences of the -log ED50 values for vasodilatation and myocardial depression, respectively, obtained in the experiments. This logarithmic separation value was transformed into numeric format and entered into table 2.

`CCOC(=O)C1=C(C(C)C)NC(C)=C(C(=O)OC)C1c1cccc(Cl)c1Cl` (stereo not drawn) [Example 1, 2-isopropyl-4-(2,3-dichlorophenyl)-6-methyl-1,4-dihydropyridine-3,5-dicarboxylic acid-3-ethylester-5-methylester] gave an ED20 in assay [1] of 2.5 µmol/kg. In assay [2], the Ratio heart vasc. came out at 98.

In assay [1], `COC(=O)C1=C(C)NC(C)=C(C(=O)OC)C1c1ccccc1[N+](=O)[O-]` [Nifedipin, 2,6-dimethyl-4-(2-nitrophenyl)-1,4-dihydropyridine-3,5-dicarboxylic acid-3,5-dimethylester, reference compound] had an ED20 of 5 µmol/kg. In assay [2], the Ratio heart vasc. was determined as 15.

In turn, `CCOC(=O)C1=C(COC)NC(C)=C(C(=O)OC)C1c1cccc(Cl)c1Cl` (stereo not drawn) [Example 2, 2-methoxymethyl-4-(2,3-dichlorophenyl)-6-methyl-1,4-dihydropyridine-3,5-dicarboxylic acid-3-ethylester-5-methylester] gave an ED20 in assay [1] of 2 µmol/kg. Also, in assay [2], the Ratio heart vasc. is 158.
